From patent US12516048B2, “B-lactam compounds, their preparation and use as antibacterial agents” (NINGXIA ACADEMY OF AGRICULTURE AND FORESTRY SCIENCES, priority 2020, dated 2026)

Tests used:
Assay in all cases: MIC determination, broth microdilution (CLSI)
Format in all cases: cell-based
P. aeruginosa 9027 = details: Pseudomonas aeruginosa, Mueller Hinton Broth II, 37° C., 18-24 hours, read-out: Strain 10 MIC
Experimental: (§1) Compounds of this invention were tested for antimicrobial activity by determining minimum inhibitory concentrations (MICs, in μg/mL) using the broth microdilution method according to the guidelines of the Clinical Laboratories and Standards Institute (“Methods for Dilution Antimicrobial Susceptibility Tests for Bacteria that Grow Aerobically”, Approved standard, 7th ed., Clinical and Laboratory Standards Institute (CLSI) Document M7-A8, Wayne, Pa., USA, 2009.). AZT: aztreonam (AZT) and ceftazidime (CAZ) were used as control antibiotics. Test compounds were dissolved in DMSO. The compounds were then diluted in microbial growth medium (Mueller Hinton Broth II, cation adjusted) resulting in a final concentration range of 0.063-64 μg/mL in serial two-fold dilution. In all cases the final DMSO concentration was less than 0.5%. Bacteria were added to 96-well microtitre plates containing the two-fold dilutions of the compounds; the final cell density was approximately 5×10^5 colony forming units/mL (CFU/mL). Plates were incubated at 37° C. for 18-24 hours and read visually. The MIC, i.e. the lowest concentration of the test compound that inhibited visible growth of the bacteria, was recorded. The same assay conditions were used when the compounds of this invention were tested in combination with β-lactamase inhibitors. While the compounds of this invention were serially diluted as described above, a constant concentration of the inhibitor of 4 mg/L was used.
(§2) Bacterial strains that were used to evaluate the antimicrobial activity using the MIC determination included but were not limited to E. coli clinical isolate, E. coli 8739, K. pneumoniae clinical isolate, K. pneumoniae 700603, E. cloacae clinical isolate, E. cloacae 700323, A. baumannii clinical isolate, A. baumannii 19606, P. aeruginosa clinical isolate, P. aeruginosa 9027.

A. baumannii 19606 = details: Acinetobacter baumannii, Mueller Hinton Broth II, 37° C., 18-24 hours, read-out: Strain8 MIC
Experimental: as §1, §2

[1] = tested on: K. pneumoniae clinical isolate; details: Klebsiella pneumoniae, Mueller Hinton Broth II, 37° C., 18-24 hours, read-out: Strain 3 MIC
Experimental: as §1, §2

[2] = tested on: P. aeruginosa clinical isolate; details: Pseudomonas aeruginosa, Mueller Hinton Broth II, 37° C., 18-24 hours, read-out: Strain 9 MIC
Experimental: as §1, §2

E. coli 8739 = details: Escherichia coli, Mueller Hinton Broth II, 37° C., 18-24 hours, read-out: Strain 2 MIC
Experimental: as §1, §2

K. pneumoniae 700603 = details: Klebsiella pneumoniae, Mueller Hinton Broth II, 37° C., 18-24 hours, read-out: Strain 4 MIC
Experimental: as §1, §2

E. coli clinical isolate = details: Escherichia coli, Mueller Hinton Broth II, 37° C., 18-24 hours, read-out: Strain 1 MIC
Experimental: as §1, §2

[3] = tested on: A. baumannii clinical isolate; details: Acinetobacter baumannii, Mueller Hinton Broth II, 37° C., 18-24 hours, read-out: Strain 7 MIC
Experimental: as §1, §2

E. cloacae 700323 = details: Enterobacter cloacae, Mueller Hinton Broth II, 37° C., 18-24 hours, read-out: Strain 6 MIC
Experimental: as §1, §2

[4] = tested on: E. cloacae clinical isolate; details: Enterobacter cloacae, Mueller Hinton Broth II, 37° C., 18-24 hours, read-out: Strain5 MIC
Experimental: as §1, §2

| MIC (P. aeruginosa 9027) [µg/mL] | MIC (A. baumannii 19606) [µg/mL] | MIC [1] [µg/mL] | MIC [2] [µg/mL] | MIC (E. coli 8739) [µg/mL] | MIC (K. pneumoniae 700603) [µg/mL] | MIC (E. coli clinical isolate) [µg/mL] | MIC [3] [µg/mL] | MIC (E. cloacae 700323) [µg/mL] | MIC [4] [µg/mL] | SMILES |
| --- | --- | --- | --- | --- | --- | --- | --- | --- | --- | --- |
| 16 | 32 | 64 | > 64 | 16 | 64 | > 64 | > 64 | > 64 | > 64 | C[C@H]1[C@H](NC(=O)/C(=N\OC(C)(C)C(=O)O)c2csc(N)n2)C(=O)N1S(=O)(=O)O [AZT, Aztreonam, reference compound] |
| > 64 | > 64 | > 64 | > 64 | > 64 | > 64 | > 64 | > 64 | > 64 | > 64 | CC(C)(O/N=C(\C(=O)N[C@@H]1C(=O)N2C(C(=O)[O-])=C(C[n+]3ccccc3)CS[C@H]12)c1csc(N)n1)C(=O)O [CAZ, Ceftazidime, reference compound] |
| 8 | 16 | 32 | 16 | 4 | 32 | 4 | 32 | 32 | 64 | Cc1sc(N)nc1/C(=N/O[C@@H](COc1ccc(C(=N)NC2CCNCC2)cc1)C(=O)O)C(=O)N[C@@H]1C(=O)N(OS(=O)(=O)O)C1(C)C [Example 1, (S)-2-((((Z)-1-(2-Amino-5-methylthiazol-4-yl)-2-(((S)-2,2-dimethyl-4-oxo-1-(sulfooxy)azetidin-3-yl)amino)-2-oxoethylidene)amino)oxy)-3-(4-(N-(piperidin-4-yl)carbamimidoyl)phenoxy)propanoic acid] |
| 32 | 16 | 32 | 8 | 2 | 64 | 4 | 16 | 32 | 64 | Cc1sc(N)nc1/C(=N/O[C@@H](COc1ccc(C(=N)N[C@@H]2CCCNC2)cc1)C(=O)O)C(=O)N[C@@H]1C(=O)N(OS(=O)(=O)O)C1(C)C [Example 2, (S)-2-((((Z)-1-(2-Amino-5-methylthiazol-4-yl)-2-(((S)-2,2-dimethyl-4-oxo-1-(sulfooxy)azetidin-3-yl)amino)-2-oxoethylidene)amino)oxy)-3-(4-(N-((R)-piperidin-3-yl)carbamimidoyl)phenoxy)propanoic acid] |
| 8 | 32 | 32 | 8 | 4 | 64 | 4 | 32 | 32 | 64 | Cc1sc(N)nc1/C(=N/O[C@@H](COc1ccc(C(=N)N[C@H]2CCNC2)cc1)C(=O)O)C(=O)N[C@@H]1C(=O)N(OS(=O)(=O)O)C1(C)C [Example 3, (S)-2-((((Z)-1-(2-Amino-5-methylthiazol-4-yl)-2-(((S)-2,2-dimethyl-4-oxo-1-(sulfooxy)azetidin-3-yl)amino)-2-oxoethylidene)amino)oxy)-3-(4-(N-((S)-pyrrolidin-3-yl)carbamimidoyl)phenoxy)propanoic acid] |
| 4 | 16 | 32 | 8 | 4 | 64 | 4 | 32 | 32 | 32 | Cc1sc(N)nc1/C(=N/O[C@@H](COc1ccc(C(=N)NC2CNC2)cc1)C(=O)O)C(=O)N[C@@H]1C(=O)N(OS(=O)(=O)O)C1(C)C [Example 4, (S)-2-((((Z)-1-(2-Amino-5-methylthiazol-4-yl)-2-(((S)-2,2-dimethyl-4-oxo-1-(sulfooxy)azetidin-3-yl)amino)-2-oxoethylidene)amino)oxy)-3-(4-(N-(azetidin-3-yl)carbamimidoyl)phenoxy)propanoic acid] |
| 4 | 16 | 32 | 4 | 4 | 64 | 4 | 32 | 32 | 64 | Cc1sc(N)nc1/C(=N/O[C@@H](COc1ccc(C(=N)N[C@H]2CCCNC2)cc1)C(=O)O)C(=O)N[C@@H]1C(=O)N(OS(=O)(=O)O)C1(C)C [Example 5, (S)-2-((((Z)-1-(2-Amino-5-methylthiazol-4-yl)-2-(((S)-2,2-dimethyl-4-oxo-1-(sulfooxy)azetidin-3-yl)amino)-2-oxoethylidene)amino)oxy)-3-(4-(N-((S)-piperidin-3-yl)carbamimidoyl)phenoxy)propanoic acid] |
| 2 | 8 | 1 | 2 | 0.25 | 1 | 1 | 8 | 4 | 2 | Cc1sc(N)nc1/C(=N/O[C@@H](COc1ccc(C(=N)N[C@@H]2CCNC2)cc1)C(=O)O)C(=O)N[C@@H]1C(=O)N(OS(=O)(=O)O)C1(C)C [Example 6, (S)-2-((((Z)-1-(2-Amino-5-methylthiazol-4-yl)-2-(((S)-2,2-dimethyl-4-oxo-1-(sulfooxy)azetidin-3-yl)amino)-2-oxoethylidene)amino)oxy)-3-(4-(N-((R)-pyrrolidin-3-yl)carbamimidoyl)phenoxy)propanoic acid] |
| 16 | 16 | 16 | 8 | 8 | 8 | 32 | 16 | 32 | 32 | CC1(C)[C@H](NC(=O)/C(=N\O[C@@H](COc2ccc(C(=N)N[C@@H]3CCNC3)cc2)C(=O)O)c2nc(N)sc2C(F)(F)F)C(=O)N1OS(=O)(=O)O [Example 7, (S)-2-((((Z)-1-(2-Amino-5-(trifluoromethyl)thiazol-4-yl)-2-(((S)-2,2-dimethyl-4-oxo-1-(sulfooxy)azetidin-3-yl)amino)-2-oxoethylidene)amino)oxy)-3-(4-(N-((R)-pyrrolidin-3-yl)carbamimidoyl)phenoxy)propanoic acid] |
| 1 | 16 | 32 | 16 | 0.5 | 64 | 1 | 32 | 32 | 64 | Cc1sc(N)nc1/C(=N/O[C@@H](COc1ccc(C(=N)N[C@@H]2CCNC2)cc1)C(=O)O)C(=O)N[C@@H]1C(=O)N(S(=O)(=O)O)[C@H]1C [Example 8, (S)-2-((((Z)-1-(2-amino-5-methylthiazol-4-yl)-2-(((2S,3S)-2-methyl-4-oxo-1-sulfoazetidin-3-yl)amino)-2-oxoethylidene)amino)oxy)-3-(4-(N-((R)-pyrrolidin-3-yl)carbamimidoyl)phenoxy)propanoic acid] |
